Laboratory results taken from patent publication US7105527B2, “N4-acylcytosine nucleosides for treatment of viral infections” (priority 2001, dated 2006).
Where two headings read alike, the source gives them in different places. Blank lines part the entries; values can stand above or below the compound they belong to.

How the values were obtained:
human PBM cells = test: Cytotoxicity assay in PBM cells; type: cell-based
Method: (§1) The toxicity of the compounds was assessed in Vero, human PBM, CEM (human lymphoblastoid), MT-2, and HepG2 cells, as described previously (Schinazi […]., Cannon D. L., Xie […]., Smith […]. […] Cycloheximide was included as positive cytotoxic control, and untreated cells exposed to solvent were included as negative controls. The cytotoxicity IC50 was obtained from the concentration-response curve using the median effective method described previously (Chou […]. […] Belen'kii M. S. & Schinazi R. F.

HIV-1RF = test: Anti-HIV (in MT-2 cells) assay, viral RNA accumulation; type: cell-based
Method: In a second antiviral testing system, the potency of the compounds was determined by measurement of viral RNA accumulation in HIV-1RF infected MT-2 cells (Bacheler L T, Paul M, Otto M J, Jadhav P K, Stone B A & Miller J A (1994) An assay for HIV RNIn infected cell lysates, and its use for rapid evaluation of antiviral efficacy. Antivir. Chem. Chemother. 5:111–121). The virus titer was established to determine the dilution producing 15 to 30 ng/RNA per well of HIV RNIn 3 days of infection. HIV-1 RNA was quantified using biotinylated capture and alkaline phosphatase-derivatized reporter oligonucleotides as described previously (Charvet A-S, Camplo M, Faury P, Graciet J C, Mourier N, Chermann J C & Kraus J L (1994) Inhibition of human immunodeficiency virus type 1 replication by phosphonoformate- and phosphonoacetate-2′,3′-dideoxy-3′-thiacytidine conjugates. J. Med. Chem. 37:2216–2223). In a third system, the effect of analogs on the replication of HIV-1NL4-3 was determined via the InterCompany Consortium consensus p24 assay as previously described (Jadhav P K & MacKay M F (1997) Cyclic urea amide: HIV-1 protease inhibitors with low nanomolar potency against both wild types and protease inhibitor resistant mutants of HIV. J. Med. Chem. 40:181–190). Recombinant viruses were recovered by transfecting the appropriate NL4-3 plasmid by lipofection. Virus stocks recovered 7 to 10 days post-transfection were titered on MT-4 cells to determine if the dilution produced 1,000 to 3,000 ng p24 in 4 days. This dilution was then used in drug susceptibility assays, where drug was added 24 h post infection of cells, and p24 quantified by ELISA 3 days later.

Vero cells = test: Cytotoxicity assay in Vero cells; type: cell-based
Method: as §1

MT-2 cells = test: Cytotoxicity assay in MT-2 cells; type: cell-based
Method: as §1

HIV-1LAl = test: Anti-HIV (in PBM cells) assay, reverse transcriptase readout; type: cell-based
Method: Anti-HIV-1 activity of the compounds was determined in human peripheral blood mononuclear (PBM) cells as described previously (Schinazi […]., Cannon D., Mathis R., Lloyd R. M. Jr., […]., St. Clair M., Wilson J., Furman P. A., Painter G., Choi […]. Antimicrob. Agents Chemother. 1992, 36, 2423; Schinazi […]., Cannon D., Xie […]., Smith G., Hahn E. Antimicrob. Agents Chemother. 1990, 34, 1061). Stock solutions ([…]) of the compounds were prepared in sterile DMSO and then diluted to the desired concentration in growth medium. […] Virus obtained from the cell supernatant was quantified on day 6 after infection by a reverse transcriptase assay using (rA)n.(dT)12.18 as template-primer. […] AZT was included as positive control. The antiviral EC50 and EC90 were obtained from the concentration-response curve using the median effective method described previously (Chou […]. Enzyme Regul. 1984, 22, 27-55; Belen'kii M. S. & Schinazi R. F. Antiviral Res. 1994, 25, 1-11).

[1] = tested on: CEM (human lymphoblastoid) cells; test: Cytotoxicity assay in CEM cells; type: cell-based
Method: as §1

HepG2 cells = test: Cytotoxicity assay in HepG2 cells; type: cell-based
Method: as §1

[2] = Cytotoxicity assay in PBM cells; type: cell-based, human; settings: human, human PBM cells
Method: as §1

[3] = Cytotoxicity assay in Vero cells; type: cell-based; settings: African green monkey
Method: as §1

[4] = Cytotoxicity assay in MT-2 cells; type: cell-based; settings: human
Method: as §1

[5] = Cytotoxicity assay in CEM cells; type: cell-based, human; settings: human, CEM lymphoblastoid cells
Method: as §1

[6] = Cytotoxicity assay in HepG2 cells; type: cell-based; settings: human
Method: as §1

[7] = Table 1, read-out: Cytotoxicity in different cells (IC50, μM) PBM
[8] = Table 1, EC90, MT-2 cells, read-out: Anti-HIV-1 activity in different cells (EC90, μM) MT-2
[9] = Table 1, read-out: Cytotoxicity in different cells (IC50, μM) Vero
[10] = Table 1, read-out: Cytotoxicity in different cells (IC50, μM) MT-2
[11] = Table 1, read-out: Anti-HIV-1 activity in different cells (EC90, μM) PBM
[12] = Table 1, read-out: Cytotoxicity in different cells (IC50, μM) CEM
[13] = Table 1, read-out: Cytotoxicity in different cells (IC50, μM) HepG2
[14] = Table 2, read-out: Cytotoxicity in different cells (IC50, μM) PBM
[15] = Human immunodeficiency virus 1, MT2, Table 2, EC90, MT-2 cells, read-out: Anti-HIV-1 activity in different cells (EC90, μM) MT-2
[16] = Table 2, read-out: Cytotoxicity in different cells (IC50, μM) Vero
[17] = Table 2, read-out: Cytotoxicity in different cells (IC50, μM) MT-2
[18] = Human immunodeficiency virus 1, PBMC, Table 2, read-out: Anti-HIV-1 activity in different cells (EC90, μM) PBM
[19] = Table 2, read-out: Cytotoxicity in different cells (IC50, μM) CEM
[20] = Table 2, read-out: Cytotoxicity in different cells (IC50, μM) HepG2
[21] = Human immunodeficiency virus 1, MT2, Table 1, EC90, MT-2 cells, read-out: Anti-HIV-1 activity in different cells (EC90, μM) MT-2
[22] = Human immunodeficiency virus 1, PBMC, Table 1, read-out: Anti-HIV-1 activity in different cells (EC90, μM) PBM

Compound: O=C(Nc1nc(=O)n([C@H]2CC[C@@H](CO)O2)cc1F)c1ccccc1[N+](=O)[O-] [Compound 20, β-D-2′,3′-Dideoxy-5-fluoro-N^4-(2-nitrobenzoyl)cytidine]
IC50 (human PBM cells; [7]): > 100 µM
EC90 (HIV-1RF; [8]): 0.7 µM
IC50 (Vero cells; [9]): > 100 µM
IC50 (MT-2 cells; [10]): > 50 µM
EC90 (HIV-1LAl; [11]): 1.5 µM
IC50 [1, 12]: > 100 µM
IC50 (HepG2 cells; [13]): > 100 µM

Compound: O=C(Nc1nc(=O)n([C@H]2C=C[C@@H](CO)O2)cc1F)C1CCCCC1 [Compound 58, β-D-N-(Cyclohexanecarbonyl)-2′ 3′-didehydro-2′,3′-dideoxy-5-fluorocytidine]
IC50 [2, 14]: 11.7 µM
EC90 (HIV-1RF; [15]): 0.38 µM
IC50 [3, 16]: > 100 µM
IC50 [4, 17]: > 50 µM
EC90 (HIV-1LAl; [18]): 0.6 µM
IC50 [5, 19]: 11.2 µM
IC50 [6, 20]: > 100 µM

EC90 (HIV-1LAl; [11]): 0.31 µM
Compound: CCCCc1ccc(C(=O)Nc2nc(=O)n([C@H]3CC[C@@H](CO)O3)cc2F)cc1 [Compound 27, β-D-N^4-(4-n-Butylbenzoyl)-2,3′-dideoxy-5-fluorocytidine]
IC50 (human PBM cells; [7]): 1.1 µM
IC50 (Vero cells; [9]): 3.2 µM
IC50 [1, 12]: 1.3 µM
IC50 (HepG2 cells; [13]): 1.9 µM

Compound: CCCCCCC(=O)Nc1nc(=O)n(C2C=CC(CO)O2)cc1F [Compound 59, β-D-2′,3′-Didehydro-2′,3′-dideoxy-5-fluoro-N^4-heptanoylcytidine]
EC90 (HIV-1RF; Table 2, EC90, MT-2 cells, read-out: Anti-HIV-1 activity in different cells (EC90, μM) MT-2): 0.23 µM
IC50 (MT-2 cells; [17]): 6.2 µM

EC90 (HIV-1LAl; Table 2, read-out: Anti-HIV-1 activity in different cells (EC90, μM) PBM): 3.1 µM
Compound: CCCCc1ccc(C(=O)Nc2nc(=O)n([C@H]3C=C[C@@H](CO)O3)cc2F)cc1 [Compound 52, β-D-N^4-(4-n-Butylbenzoyl)-2′,3′-didehydro-2,3′-dideoxy-5-fluoro-^4cytidine]
IC50 (human PBM cells; [14]): 7.3 µM
IC50 (Vero cells; [16]): 29.4 µM
IC50 [1, 19]: 8.5 µM
IC50 (HepG2 cells; [20]): 5.1 µM

Compound: COc1ccc(C(=O)Nc2nc(=O)n([C@H]3C=C[C@@H](CO)O3)cc2F)cc1 [Compound 42, β-D-N^4-p-Anisoyl-2′,3′-didehydro-2′,3′dideoxy-5-fluorocytidine]
IC50 [2, 14]: > 100 µM
EC90 (HIV-1RF; [15]): 0.58 µM
IC50 [4, 17]: > 50 µM
EC90 (HIV-1LAl; [18]): 0.7 µM
IC50 [6, 20]: > 100 µM

Compound: O=C(Nc1nc(=O)n([C@H]2CC[C@@H](CO)O2)cc1F)C1CCCCC1 [Compound 33, β-D-N^4-(Cyclohexanecarbonyl)-2′,3′-dideoxy-5-fluorocytidine]
IC50 [2, 7]: 4.5 µM
EC90 (HIV-1RF; [21]): 0.3 µM
IC50 [3, 9]: 11.8 µM
IC50 [4, 10]: 50 µM
EC90 (HIV-1LAl; [22]): 0.086 µM
IC50 [5, 12]: 6.4 µM
IC50 [6, 13]: 6.5 µM

Compound: O=C(Nc1nc(=O)n([C@H]2C=C[C@@H](CO)O2)cc1F)C1CCCC1 [Compound 57, β-D-N^4-(Cyclopentanecarbonyl)-2′,3′-didehydro-2′,3′-dideoxy-5-fluorocytidine]
IC50 [2, 14]: 52.9 µM
EC90 (HIV-1RF; [15]): 0.51 µM
IC50 [3, 16]: 87.6 µM
IC50 [4, 17]: > 50 µM
EC90 (HIV-1LAl; [18]): 0.4 µM
IC50 [5, 19]: 19.6 µM
IC50 [6, 20]: > 100 µM

Compound: O=C(Nc1nc(=O)n([C@H]2CC[C@@H](CO)O2)cc1F)c1cc2ccccc2s1 [Compound 32, β-D-2′,3′-Dideoxy-5-fluoro-N^4-(benzo[b]thiophene-2-carbonyl)cytidine]
IC50 [2, 7]: 23.5 µM
EC90 (HIV-1RF; [21]): 0.3 µM
IC50 [3, 9]: 39.6 µM
IC50 [4, 10]: > 50 µM
EC90 (HIV-1LAl; [22]): 0.19 µM
IC50 [5, 12]: 4.5 µM
IC50 [6, 13]: 1.3 µM

Compound: Cc1cccc(C(=O)Nc2nc(=O)n([C@H]3CC[C@@H](CO)O3)cc2F)c1 [Compound 23, β-D-2′,3′-Dideoxy-5-fluoro-N-m-toluoylcytidine]
IC50 [2, 7]: 8.4 µM
EC90 (HIV-1RF; [21]): 0.24 µM
IC50 [3, 9]: 61.1 µM
IC50 [4, 10]: > 50 µM
EC90 (HIV-1LAl; [22]): 0.012 µM
IC50 [5, 12]: > 100 µM
IC50 [6, 13]: > 100 µM

Compound: O=C(Nc1nc(=O)n([C@H]2CC[C@@H](CO)O2)cc1F)c1cccs1 [Compound 30, β-D-2′,3′-Dideoxy-5-fluoro-N^4-(2-thiophenecarbonyl)cytidine]
IC50 [2, 7]: 19.4 µM
EC90 (HIV-1RF; [21]): 0.4 µM
IC50 [3, 9]: 23.9 µM
IC50 [4, 10]: > 50 µM
EC90 (HIV-1LAl; [22]): 0.052 µM
IC50 [5, 12]: 13.7 µM
IC50 [6, 13]: 37.9 µM

Compound: O=C(Nc1nc(=O)n([C@H]2C=C[C@@H](CO)O2)cc1F)c1cccc([N+](=O)[O-])c1 [Compound 46, β-D-2′,3′-Didehydro-2,3′-dideoxy-5-fluoro-N^4-(3-nitrobenzoyl)cytidine]
IC50 [2, 14]: 11.9 µM
EC90 (HIV-1RF; [15]): 0.58 µM
IC50 [3, 16]: > 100 µM
IC50 [4, 17]: > 50 µM
EC90 (HIV-1LAl; [18]): 0.93 µM
IC50 [5, 19]: 54.5 µM
IC50 [6, 20]: > 100 µM

Compound: Cc1cccc(C(=O)Nc2nc(=O)n([C@H]3C=C[C@@H](CO)O3)cc2F)c1 [Compound 49, β-D-2,3′-Didehydro-2,3′-dideoxy-5-fluoro-N^4-m-toluoylcytidine]
IC50 [2, 14]: 57.1 µM
EC90 (HIV-1RF; Human immunodeficiency virus 1, MT2, read-out: Anti-HIV-1 activity in different cells (EC90, μM) MT-2): 0.8 µM
IC50 [3, 16]: 149 µM
IC50 [4, 17]: > 50 µM
EC90 (HIV-1LAl; [18]): 0.7 µM
IC50 [5, 19]: 34.9 µM
IC50 [6, 20]: > 100 µM

Compound: CC(C)(C)c1ccc(C(=O)Nc2nc(=O)n([C@H]3CC[C@@H](CO)O3)cc2F)cc1 [Compound 28, β-D-N^4-(4-tert-Butylbenzoyl)-2,3′-dideoxy-5-fluorocytidine]
IC50 (human PBM cells; [7]): 12.5 µM
EC90 (HIV-1RF; [8]): 0.6 µM
IC50 (Vero cells; [9]): 25.9 µM
EC90 (HIV-1LAl; [11]): 0.088 µM
IC50 [1, 12]: 6 µM
IC50 (HepG2 cells; [13]): 21.3 µM

Compound: Cc1ccc(C(=O)Nc2nc(=O)n([C@H]3C=C[C@@H](CO)O3)cc2F)cc1 [Compound 48, β-D-2′,3′-Didehydro-2′,3′-dideoxy-5-fluoro-N^4-p-toluoylcytidine]
IC50 [2, 14]: 13.2 µM
EC90 (HIV-1RF; [15]): 0.21 µM
IC50 [3, 16]: > 100 µM
IC50 [4, 17]: > 50 µM
EC90 (HIV-1LAl; [18]): 0.32 µM
IC50 [5, 19]: 31.9 µM
IC50 [6, 20]: > 100 µM
